Source: patent publication US8658604B2, “Template-fixed beta-hairpin peptidomimetics with protease inhibitory activity” (Polyphor Ltd, priority 2005, dated 2014)
Where a SMILES comes first, the peptide text is derived from it.

Legend:
[1] = tested on: Tryptase, from human lung; assay: Enzymatic assay, tryptase; details: at 100 μM
[2] = target: Chymotrypsin, from human pancreas (Homo sapiens, UniProt P17538); assay: Enzymatic assay, chymotrypsin
[3] = target: T1, Elastase from human neutrophils (Homo sapiens, UniProt P08246); assay: Enzymatic assay, elastase; details: Elastase IC50
T1 sequence (P08246 30-267): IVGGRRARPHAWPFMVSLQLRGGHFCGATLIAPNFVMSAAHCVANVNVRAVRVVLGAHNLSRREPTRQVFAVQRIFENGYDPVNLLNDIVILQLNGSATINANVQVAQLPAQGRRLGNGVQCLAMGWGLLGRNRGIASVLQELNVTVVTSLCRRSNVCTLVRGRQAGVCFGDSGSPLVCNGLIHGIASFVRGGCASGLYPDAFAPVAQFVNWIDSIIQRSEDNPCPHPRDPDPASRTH

[4] = target: Trypsin, from human pancreas (Homo sapiens, UniProt P07477); assay: Enzymatic assay, trypsin

Sequence of Chymotrypsin, from human pancreas (P17538 19-263): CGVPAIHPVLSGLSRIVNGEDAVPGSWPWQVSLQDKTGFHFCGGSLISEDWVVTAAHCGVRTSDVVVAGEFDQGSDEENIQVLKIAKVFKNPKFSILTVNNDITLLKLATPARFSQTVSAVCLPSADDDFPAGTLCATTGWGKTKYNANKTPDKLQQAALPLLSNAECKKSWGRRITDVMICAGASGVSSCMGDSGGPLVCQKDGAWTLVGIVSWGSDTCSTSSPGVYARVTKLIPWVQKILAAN

SMILES	Tryptase At 100 μM % [1] [%]	Chymotrypsin at 100 μM % [2] [%]	IC50 [3] [nM]	IC50 [4] [nM]	Tryptase at 100 μM % [1] [%]	IC50 [2] [nM]
CCCC[C@@H]1NC(=O)[C@@H]2CCCN2C(=O)[C@H]2CCCN2C(=O)[C@H](Cc2ccccc2)NC(=O)[C@@H]2CSSC[C@H](NC1=O)C(=O)N[C@@H]([C@@H](C)O)C(=O)N[C@@H](C)C(=O)N[C@@H](CO)C(=O)N[C@@H]([C@@H](C)CC)C(=O)N1CCC[C@H]1C(=O)N1CCC[C@H]1C(=O)N[C@@H](CCC(N)=O)C(=O)N2 [Ex. 137] (HELM PEPTIDE1{[Nle].C.T.A.S.I.P.P.Q.C.F.[dP].P}$PEPTIDE1,PEPTIDE1,2:R3-10:R3|PEPTIDE1,PEPTIDE1,1:R1-13:R2$$$V2.0)	5	68.7				
CCCC[C@@H]1NC(=O)[C@H](CC(=O)O)NC(=O)[C@H]2CCCN2C(=O)[C@H](Cc2ccc(O)cc2)NC(=O)[C@@H]2CSSC[C@H](NC1=O)C(=O)N[C@@H]([C@@H](C)O)C(=O)N[C@@H](C)C(=O)N[C@@H](CO)C(=O)N[C@@H]([C@@H](C)CC)C(=O)N1CCC[C@H]1C(=O)N1CCC[C@H]1C(=O)N[C@@H](CCC(N)=O)C(=O)N2 [Ex. 168] (HELM PEPTIDE1{[Nle].C.T.A.S.I.P.P.Q.C.Y.[dP].D}$PEPTIDE1,PEPTIDE1,2:R3-10:R3|PEPTIDE1,PEPTIDE1,1:R1-13:R2$$$V2.0)	4.6	72.9				
CCCC[C@@H]1NC(=O)[C@@H]2CCCN2C(=O)[C@H]2CCCN2C(=O)[C@H](Cc2ccc(O)cc2)NC(=O)[C@@H]2CSSC[C@H](NC1=O)C(=O)N[C@@H]([C@@H](C)O)C(=O)N[C@@H](C)C(=O)N[C@@H](CO)C(=O)N[C@@H](C1CCCCC1)C(=O)N1CCC[C@H]1C(=O)N1CCC[C@H]1C(=O)N[C@@H](CCC(N)=O)C(=O)N2 [Ex. 140] (HELM PEPTIDE1{[Nle].C.T.A.S.[O=C([C@@H](N[*:1])C1CCCCC1)[*:2]].P.P.Q.C.Y.[dP].P}$PEPTIDE1,PEPTIDE1,2:R3-10:R3|PEPTIDE1,PEPTIDE1,1:R1-13:R2$$$V2.0)	4.2	79.6				
CCCC[C@@H]1NC(=O)[C@@H]2CCCN2C(=O)[C@H]2CCCN2C(=O)[C@H](Cc2ccc(O)cc2)NC(=O)[C@@H]2CSSC[C@H](NC1=O)C(=O)N[C@@H]([C@@H](C)O)C(=O)N[C@@H](C)C(=O)N[C@@H](CO)C(=O)N[C@@H]([C@@H](C)CC)C(=O)N1CCC[C@H]1C(=O)N1CCC[C@H]1C(=O)N[C@@H](CCC(N)=O)C(=O)N2 [Ex. 179] (HELM PEPTIDE1{[Nle].C.T.A.S.I.P.P.Q.C.Y.[dP].P}$PEPTIDE1,PEPTIDE1,2:R3-10:R3|PEPTIDE1,PEPTIDE1,1:R1-13:R2$$$V2.0)	0	76.0	50	> 100000		
CCCC[C@@H]1NC(=O)[C@@H]2CCCN2C(=O)[C@H]2CCCN2C(=O)[C@H](c2ccccc2)NC(=O)[C@@H]2CSSC[C@H](NC1=O)C(=O)N[C@@H]([C@@H](C)O)C(=O)N[C@@H](C)C(=O)N[C@@H](CO)C(=O)N[C@@H]([C@@H](C)CC)C(=O)N1CCC[C@H]1C(=O)N1CCC[C@H]1C(=O)N[C@@H](CCC(N)=O)C(=O)N2 [Ex. 136] (HELM PEPTIDE1{[Nle].C.T.A.S.I.P.P.Q.C.[Phg].[dP].P}$PEPTIDE1,PEPTIDE1,2:R3-10:R3|PEPTIDE1,PEPTIDE1,1:R1-13:R2$$$V2.0)	0	67.9				
CCCC[C@@H]1NC(=O)[C@@H]2CCCN2C(=O)[C@H]2CCCN2C(=O)[C@H](Cc2ccc(O)cc2)NC(=O)[C@@H]2CSSC[C@H](NC1=O)C(=O)N[C@@H]([C@@H](C)O)C(=O)N[C@@H](C)C(=O)N[C@@H](CO)C(=O)N[C@@H](CC1CCCCC1)C(=O)N1CCC[C@H]1C(=O)N1CCC[C@H]1C(=O)N[C@@H](CCC(N)=O)C(=O)N2 [Ex. 82] (HELM PEPTIDE1{[Nle].C.T.A.S.[Cha].P.P.Q.C.Y.[dP].P}$PEPTIDE1,PEPTIDE1,2:R3-10:R3|PEPTIDE1,PEPTIDE1,1:R1-13:R2$$$V2.0)			18		44.5	72.9
